According to patent US20060009428A1, “Cyclic progestin regimens and kits” (Wyeth, priority 2004, published 2006):
Values joined by “and” are separate entries in the source; they are usually repeats but may differ in a detail not shown here. Equal entries are not always repeated.

Experiments:
Format in all cases: in vivo
[1] = tested on: rabbit endometrial transformation; experiment: Rabbit endometrial transformation (Clauberg) assay; conditions: for ED50: Oryctolagus cuniculus, 120 h, read-out: Rabbit Clauberg Assay estimated ED50 (AED50)
Procedure: In addition to the rat progestational models described above, NSP-989 was also evaluated in the Clauberg model, a classic progestational assay in the rabbit endometrial transformation model [McPhail MK, “The assay of progestin.” J Physiol. 1934; 83:145-1567]. Briefly, immature female New Zealand White rabbits (˜1 kg body weight) were injected subcutaneously with 5 μg 17β-estradiol (E2)/rabbit/day for six consecutive days. Beginning 24 hours after the final E2 injection, vehicle alone or test compounds were given orally for (5) five consecutive days. Progestational activity was determined by increases in uterine weight and endometrial glandular arborization (McPhail Index).

[2] = tested on: estrogen-induced C3 expression in the uterine epithelium; experiment: Adult ovariectomized rat uterine C3 model; conditions: po, once daily for 2 days, with EE 0.08 mg/kg on day 2; for ED50: Rattus norvegicus, 48 h
Procedure: The third model for PR agonist activity was the adult ovariectomized rat uterine C3 model. This assay evaluates the ability of a progestin to block estrogen-induced C3 expression in the uterine epithelium.
Ovariectomized female, 60 day-old Sprague-Dawley rats were obtained from Harlan (Indianapolis, Ind.). Ovariectomies were performed by the supplier a minimum of 8 days prior tobefore treatment. The rats were randomized and placed in groups of 6. The animals were treated once daily for (2) two days orally by gavage (p.o.) in a volume of 0.5 mL. On the second day of treatment, the animals were also treated with EE (0.08 mg/kg body weight (BW)) orally by gavage. Approximately 24 hours after the final treatment, the animals were euthanized by CO2 asphyxiation. The uteri were then removed, stripped of remaining fat and mesentery, weighed, and snap-frozen on dry ice. Total RNA was isolated from the uteri using the Trizol Reagent (GibcoBRL) as described by the manufacturer. Real-time reverse transcription polymerase chain reaction (RT-PCR) as previously reported [Sampath D, et al., “Aberrant expression of Cyr61, a member of the CCN (CTGF/Cyr61/Cef10/NOVH) family, and dysregulation by 17b-estradiol and basic fibroblast growth factor in human uterine leiomyomas” J Clin Endocrinol Metab. 2001; 86:1707-1715] was used to quantitate complement C3 expression. Briefly, RNA samples were DNAse-I treated using a DNA-free kit (Ambion). A total of 50 ng of RNA was analyzed in triplicate using C3 specific primer pair (5′primer […] [SEQ ID NO: 1], 3]primer […] [SEQ ID NO: 2]) and customized probe (6FAM-[…]-TAMRA [SEQ ID NO: 3]). C3 messenger RNA (mRNA) levels were normalized to 18s 18S ribosomal RNA contained within each sample reaction using primers and probe supplied by PE Applied Biosystems.

progesterone receptor = molecular target: T1, progesterone receptor (Rattus norvegicus, UniProt Q63449); experiment: Rat uterine decidualization assay in adult ovariectomized rats; conditions: for ED50: rat, read-out: Rat Decidual Assay ED50
T1 construct: the uterine decidualization assay in adult ovariectomized rats; from tissue; host or cells: uterus of live ovariectomized Sprague-Dawley rats (in vivo)
T1 sequence (Q63449 1-923): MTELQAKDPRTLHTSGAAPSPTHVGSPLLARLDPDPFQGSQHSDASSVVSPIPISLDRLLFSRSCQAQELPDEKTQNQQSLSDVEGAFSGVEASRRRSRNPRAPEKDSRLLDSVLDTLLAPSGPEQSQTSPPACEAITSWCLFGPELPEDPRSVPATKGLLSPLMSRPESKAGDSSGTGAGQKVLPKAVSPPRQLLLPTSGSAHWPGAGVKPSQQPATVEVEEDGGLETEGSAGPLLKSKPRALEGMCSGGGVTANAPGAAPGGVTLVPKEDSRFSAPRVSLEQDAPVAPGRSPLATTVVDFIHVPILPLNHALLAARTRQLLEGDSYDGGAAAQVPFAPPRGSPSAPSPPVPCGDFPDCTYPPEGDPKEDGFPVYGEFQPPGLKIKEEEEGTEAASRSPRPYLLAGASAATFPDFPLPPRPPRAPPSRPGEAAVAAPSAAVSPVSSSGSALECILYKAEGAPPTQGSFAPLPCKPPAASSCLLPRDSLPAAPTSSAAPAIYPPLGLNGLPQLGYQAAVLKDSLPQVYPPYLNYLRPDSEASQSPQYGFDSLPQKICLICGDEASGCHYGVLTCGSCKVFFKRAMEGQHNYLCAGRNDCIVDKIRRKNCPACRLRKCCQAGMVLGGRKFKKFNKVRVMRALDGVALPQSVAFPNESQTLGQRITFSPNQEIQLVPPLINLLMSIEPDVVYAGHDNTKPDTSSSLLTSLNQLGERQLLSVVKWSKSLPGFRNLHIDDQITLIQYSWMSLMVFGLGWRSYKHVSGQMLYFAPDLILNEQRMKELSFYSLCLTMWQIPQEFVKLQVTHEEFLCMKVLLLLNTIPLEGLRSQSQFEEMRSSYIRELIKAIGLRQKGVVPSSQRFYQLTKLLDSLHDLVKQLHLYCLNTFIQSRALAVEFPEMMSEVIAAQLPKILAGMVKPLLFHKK
Procedure: The second rat model to determine progestational activity is the uterine decidualization assay in adult ovariectomized rats.
Briefly, mature female Sprague-Dawley rats (˜220 g) were ovariectomized at least 10 days prior to treatment to reduce circulating sex steroids. […] Approximately 24 hours after the third daily treatment, decidualization was induced in onel uterine horn of each anesthetized rat by scratching the antimesometrial luminal epithelium with a blunt 21-gauge needle. The contralateral horn was not scratched and served as a non-stimulated control. Animals were euthanized by CO2 asphyxiation 24 hoursr following the final treatment. The uteri were removed, and trimmed of fat, and the decidualized (D) and control (C) horns were weighed separately. The decidual response is expressed as D/C.

[3] = tested on: ovulation in adult female rats; experiment: Rat ovulation inhibition assay; conditions: po, once daily for 4 days, Sprague-Dawley rats
Procedure: The ovulation inhibition assay measures a compound's ability to inhibit ovulation in adult female rats. This activity is essential for contraceptive efficacy.
Random cycling mature female Sprague-Dawley rats (˜200 g) were obtained from Charles River Laboratory (Boston, Mass.). Rats were synchronized for estrus with 2 μg of LHRH (in phosphate buffered saline containing 0.1% bovine serum albumin) administered subcutaneously (sc) per rat at 0900 h and again at 1600 h. Animals were allowed to rest for 8 days before the administration of test compounds. Animals were then grouped, with 7 to 9 rats per treatment group. The morning of the ninth day following LHRH treatment, the rats were treated with test compounds once daily, by gavage. This continued for 4 consecutive days. The animals were euthanized the morning following the last treatment. Oviducts were removed, placed between 2 glass slides, and viewed through a dissecting microscope to count ova. The number of animals presenting ova in the oviduct from each treatment group and the number of ova in the oviduct of each animal were recorded.

[4] = po, 5 days, estradiol-primed immature rabbits, limited dose response studies
[5] = po, once daily for 7 days, ovariectomized rats

C[C@H](O)C(=O)[C@@]1(C)CC[C@H]2[C@@H]3CCC4=CC(=O)CCC4=C3CC[C@@]21C [TMG, trimegestone]
Rabbit Clauberg Assay estimated ED50 (AED50) [1, 4]: 0.001 mg/kg | Rat C3 Assay ED50 [2]: 0.005 mg/kg | Rat Decidual Assay ED50 (progesterone receptor; [5]): 1.0 mg/kg | Rat Ovulation Inhibition Assay ED100 [3]: 1 mg/kg and 1.0 mg/kg

Cn1c(C#N)ccc1-c1ccc2c(c1)C(C)(C)OC(=S)N2 [NSP-989, 5-(4,4-Dimethyl-2-thioxo-1,4-dihydro-2H-benzo[d] [1,3]oxazin-6-yl)-1-methyl-1H-pyrrole-2-carbonitrile]
ED50 [1, 4]: 0.001 mg/kg | Potency in Clauberg assay relative to MPA (fold more potent) ([1]; versus MPA): about 30 fold | ED50 [2]: 0.0005 mg/kg | ED50 (progesterone receptor; [5]): 0.01 mg/kg | Potency in decidualization relative to MPA (fold more potent) (progesterone receptor; versus MPA): approximately 40 fold | Potency in decidualization relative to TMG (fold more potent) (progesterone receptor; versus TMG): ~100 fold | Rat Ovulation Inhibition Assay ED100 [3]: 0.03 mg/kg

CC(=O)O[C@]1(C(C)=O)CC[C@H]2[C@@H]3C[C@H](C)C4=CC(=O)CC[C@]4(C)[C@H]3CC[C@@]21C [MPA, medroxyprogesterone acetate]
ED50 [1, 4]: 0.03 mg/kg | ED50 [2]: 0.03 mg/kg | ED50 (progesterone receptor; [5]): 0.4 mg/kg | Rat Ovulation Inhibition Assay ED100 [3]: 1 mg/kg and 1.0 mg/kg
